Assay results reported in paper PMC6072100, “Exploring the links between peptoid antibacterial activity and toxicity” (MedChemComm, 2017).
Square brackets hold non-standard residues; d marks the D form. Peptide text beside a SMILES is read from it. Gly(Nα-4-Cl-benzyl) = O=C(O)CNCc1ccc(Cl)cc1; Gly(N-(CH2)6NH2) = NCCCCCCNCC(=O)O; Gly(N-2-aminoethyl) = NCCNCC(=O)O; Nspe = C[C@H](NCC(=O)O)c1ccccc1; Nlys = NCCCCNCC(=O)O

Assay: Skin cell toxicity assay with HaCaT (alamarBlue)
Type: cell-based, human
Details: human, HaCaT cells (keratinocytes), ED50 HaCaT
Experimental: The activity of our peptoid library was assessed against both bacterial and mammalian cells to gain a broader understanding of the factors that lead to effective and selective antimicrobial peptoids. We screened for broad-spectrum antibacterial activity against Gram-negative (Escherichia coli and Pseudomonas aeruginosa) and Gram-positive (Staphylococcus aureus and S. epidermidis) bacteria. The toxicity of the library was also assessed against two mammalian cell lines; HaCaT spontaneously transformed aneuploid keratinocytes were employed to model toxicity against human skin cells and HepG2, a cell line derived from a human liver carcinoma, were used as a study on polarised human hepatocytes. Detailed methods for these assays can be found in the ESI. ^‡ […]
Please note – ED50, the median effective dose, was defined as the dose that kills 50% of cells.
Cytotoxicity analyses were performed in 96-well plates (Costar, Fisher Scientific) using alamarBlue® (Invitrogen) for cell viability detection using a modified protocol as described previously. HepG2 or HaCaT cells were subcultured at 37 °C, 5% CO2 in DMEM high glucose supplemented with heat-inactivated foetal bovine sera (FBS, 10%; Biosera Ltd) and penicillin/streptomycin (P/S, 1%). Cells were counted using a Neubauer Improved Haemocytometer. HepG2 cells were seeded 1 day prior to treatment in 96 well plates at a concentration of 2 × 10^5 cells per mL in 100 μL of medium (2 × 10^4 cells per well). Then cells were pre-incubated with the compounds in triplicate in a dilution series in triplicate from 2–100 μM (5 mM stock solutions in DMSO diluted from 100 μM to 3 μM; untreated cells with DMSO as a negative control) in 50 μl of the media for 1 hour. Afterwards, 40 μL were removed from each well before the addition of 90 μL of the media, followed by incubation for 24 hours at 37 °C, 5% CO2. Then, 10 μL of alamarBlue® (Invitrogen) was added to each well before a 2 hour incubation prior to assessing cell viability using a fluorescent plate reader (Biotek; Ex 560 nm/Em 600 nm). All data were measured in triplicate on a minimum of two occasions to ensure a robust data set was collected. The ED50 values were calculated from the dose response results achieved from the serial dilutions. […]
Cells were counted using a Neubauer Improved
Haemocytometer. […]
µM to 3 µM; untreated cells with DMSO as a negative control) in 50 µl of the media for 1 hour.
Afterwards, 40 µL were removed from each well before the addition of 90 µL of the media, followed by incubation for 24 hours at 37 °C, 5% CO2. Then, 10 µL of alamarBlue® (Invitrogen) was added to each well before a 2 hour incubation prior to assessing cell viability using a fluorescent plate reader (Biotek; Ex 560 nm / Em 600 nm). All data was measured in triplicate on a minimum of two occasions to ensure a robust data set was collected. The ED50 values were calculated from the dose response results achieved from the serial dilutions.
Skin Cell Toxicity assay with HaCaT […]
alamarBlue® (Invitrogen) for cell viability detection. HaCaT cells were subcultured at 37 °C, 5% CO2 in DMEM high glucose supplemented with heat-inactivated foetal bovine sera (FBS, 10%; Biosera Ltd) and penicillin/streptomycin (P/S, 1%). Cells were counted using a Neubauer Improved Haemocytometer. HaCaT cells were seeded in the plates 24 hours prior to treatment in 96 well plates at a concentration of 2x10^5 cells/mL in 100 µL of medium (2x10^4 cells/well).
Empty wells were filled with 100 µL PBS. After 24 hours, cells were incubated with the compounds in a dilution series in triplicate from 2 – 100 µM (5 mM stock solutions in DMSO diluted from 100 µM to 3 µM; Amphotericin B was used as a positive control and untreated cells with DMSO as a negative control) in 50 µL of the media for 1 hour. Afterwards, 40 µl was removed from each well, 90 µL of medium was added to each well and the cells incubated for 24 hours at 37 °C, 5% CO2. 10 µL of alamarBlue® (Invitrogen) was added to each well before […]

C[C@@H](c1ccccc1)N(CC(N)=O)C(=O)CN(C(=O)CN(CCCCCCN)C(=O)CN(C(=O)CN(C(=O)CN(CCCCCCN)C(=O)CN(C(=O)CN(C(=O)CN(CCCCCCN)C(=O)CN(C(=O)CN(C(=O)CNCCCCCCN)[C@@H](C)c1ccccc1)[C@@H](C)c1ccccc1)[C@@H](C)c1ccccc1)[C@@H](C)c1ccccc1)[C@@H](C)c1ccccc1)[C@@H](C)c1ccccc1)[C@@H](C)c1ccccc1 [Peptoid 10, (NahNspeNspe)4] (H-[Gly(N-(CH2)6NH2)][Nspe][Nspe][Gly(N-(CH2)6NH2)][Nspe][Nspe][Gly(N-(CH2)6NH2)][Nspe][Nspe][Gly(N-(CH2)6NH2)][Nspe][Nspe]-NH2; N-terminus assumed)
CC50 at 24 h: 23 µM

C[C@@H](c1ccccc1)N(CC(N)=O)C(=O)CN(C(=O)CN(CCN)C(=O)CN(C(=O)CN(C(=O)CN(CCN)C(=O)CN(C(=O)CN(C(=O)CN(CCN)C(=O)CN(C(=O)CN(C(=O)CNCCN)[C@@H](C)c1ccccc1)[C@@H](C)c1ccccc1)[C@@H](C)c1ccccc1)[C@@H](C)c1ccccc1)[C@@H](C)c1ccccc1)[C@@H](C)c1ccccc1)[C@@H](C)c1ccccc1 [Peptoid 16, (NaeNspeNspe)4] (H-[Gly(N-2-aminoethyl)][Nspe][Nspe][Gly(N-2-aminoethyl)][Nspe][Nspe][Gly(N-2-aminoethyl)][Nspe][Nspe][Gly(N-2-aminoethyl)][Nspe][Nspe]-NH2)
CC50 at 24 h: 26 µM

NCCCCNCC(=O)N(CC(=O)N(CC(=O)N(CCCCN)CC(=O)N(CC(=O)N(CC(=O)N(CCCCN)CC(=O)N(CC(=O)N(CC(=O)N(CCCCN)CC(=O)N(CC(=O)N(CC(N)=O)Cc1ccc(Cl)cc1)Cc1ccc(Cl)cc1)Cc1ccc(Cl)cc1)Cc1ccc(Cl)cc1)Cc1ccc(Cl)cc1)Cc1ccc(Cl)cc1)Cc1ccc(Cl)cc1)Cc1ccc(Cl)cc1 [Peptoid 20, (NLysNpcbNpcb)4] (H-[Nlys][Gly(Nα-4-Cl-benzyl)][Gly(Nα-4-Cl-benzyl)][Nlys][Gly(Nα-4-Cl-benzyl)][Gly(Nα-4-Cl-benzyl)][Nlys][Gly(Nα-4-Cl-benzyl)][Gly(Nα-4-Cl-benzyl)][Nlys][Gly(Nα-4-Cl-benzyl)][Gly(Nα-4-Cl-benzyl)]-NH2)
CC50 at 24 h: 18 µM

NCCCCNCC(=O)N(CC(=O)N(CC(=O)N(CCCCN)CC(=O)N(CC(=O)N(CC(=O)N(CCCCN)CC(=O)N(CC(=O)N(CC(N)=O)Cc1ccc(Cl)cc1)Cc1ccc(Cl)cc1)Cc1ccc(Cl)cc1)Cc1ccc(Cl)cc1)Cc1ccc(Cl)cc1)Cc1ccc(Cl)cc1 [Peptoid 21, (NLysNpcbNpcb)3] (H-[Nlys][Gly(Nα-4-Cl-benzyl)][Gly(Nα-4-Cl-benzyl)][Nlys][Gly(Nα-4-Cl-benzyl)][Gly(Nα-4-Cl-benzyl)][Nlys][Gly(Nα-4-Cl-benzyl)][Gly(Nα-4-Cl-benzyl)]-NH2)
CC50 at 24 h: 22 µM

NCCCCNCC(=O)N(CC(=O)N(CC(=O)N(CCCCN)CC(=O)N(CC(=O)N(CC(=O)N(CCCCN)CC(=O)N(CC(=O)N(CC(=O)N(CCCCN)CC(=O)N(CC(=O)N(CC(N)=O)Cc1cccc(F)c1)Cc1cccc(F)c1)Cc1cccc(F)c1)Cc1cccc(F)c1)Cc1cccc(F)c1)Cc1cccc(F)c1)Cc1cccc(F)c1)Cc1cccc(F)c1 [Peptoid 24, (NLysNmfbNmfb)4]
CC50 at 24 h: 25 µM

NCCCCNCC(=O)N(CC(=O)N(CC(=O)N(CCCCN)CC(=O)N(CC(=O)N(CC(=O)N(CCCCN)CC(=O)N(CC(=O)N(CC(N)=O)Cc1cccc(F)c1)Cc1cccc(F)c1)Cc1cccc(F)c1)Cc1cccc(F)c1)Cc1cccc(F)c1)Cc1cccc(F)c1 [Peptoid 25, (NLysNmfbNmfb)3]
CC50 at 24 h: 64 µM

C[C@@H](c1ccccc1)N(CC(N)=O)C(=O)CN(Cc1ccc(F)cc1)C(=O)CN(CCCCN)C(=O)CN(C(=O)CN(Cc1ccc(F)cc1)C(=O)CN(CCCCN)C(=O)CN(C(=O)CN(Cc1ccc(F)cc1)C(=O)CN(CCCCN)C(=O)CN(C(=O)CN(Cc1ccc(F)cc1)C(=O)CNCCCCN)[C@@H](C)c1ccccc1)[C@@H](C)c1ccccc1)[C@@H](C)c1ccccc1 [Peptoid 26, (NLysNpfbNspe)4]
CC50 at 24 h: 20 µM
